Experimental findings from patent US10125098B2, “Therapeutic compounds and methods of use thereof” (GENENTECH, INC., priority 2014, dated 2018) are described below.

Where two headings read alike, the source gives them in different places.

The target in one data set is T1, human NaV1.7 (Homo sapiens, UniProt Q15858).
T1 construct: permanently transfected with an expression vector containing the full-length cDNA coding for the desired human sodium channel α-subunit; expressed in transfected cells; host or cells: HEK-293
T1 sequence (Q15858 1-1977 isoform Q15858-3): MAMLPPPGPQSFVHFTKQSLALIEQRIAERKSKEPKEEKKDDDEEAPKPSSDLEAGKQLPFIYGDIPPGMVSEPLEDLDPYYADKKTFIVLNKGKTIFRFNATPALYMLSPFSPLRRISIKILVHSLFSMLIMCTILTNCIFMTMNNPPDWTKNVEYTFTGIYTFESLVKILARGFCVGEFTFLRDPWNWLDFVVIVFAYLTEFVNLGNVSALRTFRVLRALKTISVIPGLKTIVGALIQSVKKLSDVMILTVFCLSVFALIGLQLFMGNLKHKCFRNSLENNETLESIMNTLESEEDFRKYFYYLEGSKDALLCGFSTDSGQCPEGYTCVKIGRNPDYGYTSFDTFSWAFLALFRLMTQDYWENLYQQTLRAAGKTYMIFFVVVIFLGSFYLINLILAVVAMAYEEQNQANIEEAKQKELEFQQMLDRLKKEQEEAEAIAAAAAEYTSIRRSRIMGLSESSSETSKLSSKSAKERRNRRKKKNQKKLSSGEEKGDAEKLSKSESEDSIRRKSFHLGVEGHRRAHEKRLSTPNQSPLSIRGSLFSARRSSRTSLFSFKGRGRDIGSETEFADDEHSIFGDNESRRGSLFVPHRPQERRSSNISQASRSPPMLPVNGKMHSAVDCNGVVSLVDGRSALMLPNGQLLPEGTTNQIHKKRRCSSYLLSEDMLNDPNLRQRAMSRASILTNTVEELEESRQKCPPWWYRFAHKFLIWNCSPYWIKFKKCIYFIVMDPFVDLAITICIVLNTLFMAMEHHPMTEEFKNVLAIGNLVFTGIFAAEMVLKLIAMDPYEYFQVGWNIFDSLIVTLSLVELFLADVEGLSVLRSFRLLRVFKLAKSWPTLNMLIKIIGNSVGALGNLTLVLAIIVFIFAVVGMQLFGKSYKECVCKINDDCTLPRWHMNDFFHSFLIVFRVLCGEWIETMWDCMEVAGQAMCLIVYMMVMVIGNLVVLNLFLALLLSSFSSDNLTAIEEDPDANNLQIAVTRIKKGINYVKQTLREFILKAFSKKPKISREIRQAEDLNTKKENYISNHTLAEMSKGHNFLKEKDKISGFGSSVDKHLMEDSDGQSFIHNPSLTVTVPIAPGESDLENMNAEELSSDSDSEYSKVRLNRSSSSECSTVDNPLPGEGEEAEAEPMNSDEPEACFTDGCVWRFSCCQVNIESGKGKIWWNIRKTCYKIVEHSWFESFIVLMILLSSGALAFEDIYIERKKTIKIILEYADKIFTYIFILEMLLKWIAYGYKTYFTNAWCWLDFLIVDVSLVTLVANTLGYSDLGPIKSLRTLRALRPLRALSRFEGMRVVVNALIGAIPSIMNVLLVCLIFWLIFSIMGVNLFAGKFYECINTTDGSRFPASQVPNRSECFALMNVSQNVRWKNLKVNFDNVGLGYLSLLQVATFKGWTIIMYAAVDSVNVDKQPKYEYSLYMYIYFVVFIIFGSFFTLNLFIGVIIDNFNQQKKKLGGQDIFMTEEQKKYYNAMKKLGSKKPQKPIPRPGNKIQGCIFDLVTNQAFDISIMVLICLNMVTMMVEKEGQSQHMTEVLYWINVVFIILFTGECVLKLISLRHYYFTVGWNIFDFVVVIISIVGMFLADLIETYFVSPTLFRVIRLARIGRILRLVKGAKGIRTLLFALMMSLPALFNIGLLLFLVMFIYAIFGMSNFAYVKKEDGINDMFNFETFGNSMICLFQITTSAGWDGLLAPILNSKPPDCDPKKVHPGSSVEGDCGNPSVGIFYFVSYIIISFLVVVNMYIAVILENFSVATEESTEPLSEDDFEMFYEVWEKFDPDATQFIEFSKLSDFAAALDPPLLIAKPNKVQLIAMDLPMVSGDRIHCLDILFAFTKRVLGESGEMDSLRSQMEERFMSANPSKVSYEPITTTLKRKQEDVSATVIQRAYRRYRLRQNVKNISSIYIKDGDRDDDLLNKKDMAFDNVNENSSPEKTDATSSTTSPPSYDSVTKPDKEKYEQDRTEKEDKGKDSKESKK
T1 sequence (Q07699 19-218 partner): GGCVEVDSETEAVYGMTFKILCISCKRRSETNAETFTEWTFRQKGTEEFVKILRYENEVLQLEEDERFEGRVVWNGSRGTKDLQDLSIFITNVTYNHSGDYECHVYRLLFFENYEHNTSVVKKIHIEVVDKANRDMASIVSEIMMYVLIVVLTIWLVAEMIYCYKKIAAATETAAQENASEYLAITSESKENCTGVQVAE
The experiment in a line: Patch voltage clamp electrophysiology assay (EP), NaV1.7. In kind it is cell-based. Particulars: HEK-293 cells stably expressing NaV1.7 with β1 subunit; whole-cell patch clamp, membrane potential −60 mV (inactivated state). The procedure:
(§1) The following patch voltage clamp electrophysiology studies were performed on representative compounds of the invention using human embryonic kidney cells (HEK), permanently transfected with an expression vector containing the full-length cDNA coding for the desired human sodium channel α-subunit, grown in culture media containing 10% FBS, 1% PSG, and 0.5 mg/mL G418 at 37° C. with 5% CO2. […] NaV1.7 and NaV1.5 cDNAs (NM_002977 and AC137587; SCN5A, respectively) were stably expressed in HEK-293 cells. The β1 subunit was coexpressed in both the NaV1.7 and NaV1.5 cell lines.
(§2) Sodium currents were measured using the patch clamp technique in the whole-cell configuration using either a PatchXpress automated voltage clamp or manually using an Axopatch 200B (Axon Instruments) or Model 2400 (A-M systems) amplifier. The manual voltage clamp protocol was as follows: Borosilicate glass micropipettes were fire-polished to a tip diameter yielding a resistance of 2-4 Mohms in the working solutions. The pipette was filled with a solution comprised of: 5 mM NaCl, 10 mM CsCl, 120 mM CsF, 0.1 mM CaCl2, 2 mM MgCl2, 10 mM HEPES, 10 mM EGTA; and adjusted to pH 7.2 with CsOH. The external solution had the following composition: 140 mM NaCl, 5 mM KCl, 2 mM CaCl2, 1 mM MgCl2, 10 mM HEPES; and adjusted to pH 7.4 with NaOH. In some studies, the external sodium was reduced by equimolar replacement with choline. Osmolarity in the CsF internal and NaCl external solutions was adjusted to 300 mOsm/kg and 310 mOsm/kg with glucose, respectively. All recordings were performed at ambient temperature in a bath chamber with a volume of 150 μL. Control sodium currents were measured in 0.5% DMSO. Controls and representative compounds of the invention were applied to the recording chamber through a 4-pinch or 8-pinch valve bath perfusion system manufactured by ALA Scientific Instruments.
(§3) Series resistance compensation was applied (60-80%). […] All statistics in this study are given as mean±SD.
(§4) The membrane potential was maintained at a voltage where inactivation of the channel is complete (which was −60 mV for both NaV1.7 and NaV1.5). The voltage is then stepped back to a very negative (Vhold=[…]) voltage for 20 ms and then a test pulse is applied to quantify the compound block. […] The percent decrease in sodium current following wash-on of compound was taken as the percent block of sodium channels.

Another data set addresses T2, NaV1.5 (Homo sapiens, UniProt Q14524).
T2 construct: permanently transfected with an expression vector containing the full-length cDNA coding for the desired human sodium channel α-subunit; expressed in transfected cells; host or cells: HEK-293
The experiment in a line: Patch voltage clamp electrophysiology assay (EP), NaV1.5. In kind it is cell-based. Particulars: HEK-293 cells stably expressing NaV1.5 with β1 subunit, whole-cell patch clamp, membrane potential −60 mV (inactivated state). The method, then: as §1, §2, §3, §4
For orientation: The patch-clamp technique gives a direct electrical read-out from membranes.

For a further data set, the target named is T3, hNav1.7 (Homo sapiens, UniProt Q15858).
T3 construct: expressed in transfected cells
T3 sequence (Q15858 1-1977 isoform Q15858-3): as the sequence (Q15858 1-1977 isoform Q15858-3) above
T3 sequence (Q07699 19-218 partner): as the sequence (Q07699 19-218 partner) above
The experiment in a line: Tritiated compound binding (LBA) to membranes from cells expressing hNav1.7 and the β1 subunit, competitive binding. Particulars: competitive binding vs 100 pM [3H]compound, 18 h, room temperature, membranes with hNav1.7 and β1 subunit. Put shortly: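 Membranes from cells expressing hNav1.7 with β1 were incubated 18 h at room temperature with 100 pM tritiated formula (I) compound and increasing test compound, in 100 mM NaCl, 20 mM Tris HCl pH 7.4, 0.01% BSA.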

Where [1] appears, read: human, HEK-293 cells stably expressing human NaV1.5 with β1 subunit, pH 7.4.

T2 sequence (Q14524 whole entry): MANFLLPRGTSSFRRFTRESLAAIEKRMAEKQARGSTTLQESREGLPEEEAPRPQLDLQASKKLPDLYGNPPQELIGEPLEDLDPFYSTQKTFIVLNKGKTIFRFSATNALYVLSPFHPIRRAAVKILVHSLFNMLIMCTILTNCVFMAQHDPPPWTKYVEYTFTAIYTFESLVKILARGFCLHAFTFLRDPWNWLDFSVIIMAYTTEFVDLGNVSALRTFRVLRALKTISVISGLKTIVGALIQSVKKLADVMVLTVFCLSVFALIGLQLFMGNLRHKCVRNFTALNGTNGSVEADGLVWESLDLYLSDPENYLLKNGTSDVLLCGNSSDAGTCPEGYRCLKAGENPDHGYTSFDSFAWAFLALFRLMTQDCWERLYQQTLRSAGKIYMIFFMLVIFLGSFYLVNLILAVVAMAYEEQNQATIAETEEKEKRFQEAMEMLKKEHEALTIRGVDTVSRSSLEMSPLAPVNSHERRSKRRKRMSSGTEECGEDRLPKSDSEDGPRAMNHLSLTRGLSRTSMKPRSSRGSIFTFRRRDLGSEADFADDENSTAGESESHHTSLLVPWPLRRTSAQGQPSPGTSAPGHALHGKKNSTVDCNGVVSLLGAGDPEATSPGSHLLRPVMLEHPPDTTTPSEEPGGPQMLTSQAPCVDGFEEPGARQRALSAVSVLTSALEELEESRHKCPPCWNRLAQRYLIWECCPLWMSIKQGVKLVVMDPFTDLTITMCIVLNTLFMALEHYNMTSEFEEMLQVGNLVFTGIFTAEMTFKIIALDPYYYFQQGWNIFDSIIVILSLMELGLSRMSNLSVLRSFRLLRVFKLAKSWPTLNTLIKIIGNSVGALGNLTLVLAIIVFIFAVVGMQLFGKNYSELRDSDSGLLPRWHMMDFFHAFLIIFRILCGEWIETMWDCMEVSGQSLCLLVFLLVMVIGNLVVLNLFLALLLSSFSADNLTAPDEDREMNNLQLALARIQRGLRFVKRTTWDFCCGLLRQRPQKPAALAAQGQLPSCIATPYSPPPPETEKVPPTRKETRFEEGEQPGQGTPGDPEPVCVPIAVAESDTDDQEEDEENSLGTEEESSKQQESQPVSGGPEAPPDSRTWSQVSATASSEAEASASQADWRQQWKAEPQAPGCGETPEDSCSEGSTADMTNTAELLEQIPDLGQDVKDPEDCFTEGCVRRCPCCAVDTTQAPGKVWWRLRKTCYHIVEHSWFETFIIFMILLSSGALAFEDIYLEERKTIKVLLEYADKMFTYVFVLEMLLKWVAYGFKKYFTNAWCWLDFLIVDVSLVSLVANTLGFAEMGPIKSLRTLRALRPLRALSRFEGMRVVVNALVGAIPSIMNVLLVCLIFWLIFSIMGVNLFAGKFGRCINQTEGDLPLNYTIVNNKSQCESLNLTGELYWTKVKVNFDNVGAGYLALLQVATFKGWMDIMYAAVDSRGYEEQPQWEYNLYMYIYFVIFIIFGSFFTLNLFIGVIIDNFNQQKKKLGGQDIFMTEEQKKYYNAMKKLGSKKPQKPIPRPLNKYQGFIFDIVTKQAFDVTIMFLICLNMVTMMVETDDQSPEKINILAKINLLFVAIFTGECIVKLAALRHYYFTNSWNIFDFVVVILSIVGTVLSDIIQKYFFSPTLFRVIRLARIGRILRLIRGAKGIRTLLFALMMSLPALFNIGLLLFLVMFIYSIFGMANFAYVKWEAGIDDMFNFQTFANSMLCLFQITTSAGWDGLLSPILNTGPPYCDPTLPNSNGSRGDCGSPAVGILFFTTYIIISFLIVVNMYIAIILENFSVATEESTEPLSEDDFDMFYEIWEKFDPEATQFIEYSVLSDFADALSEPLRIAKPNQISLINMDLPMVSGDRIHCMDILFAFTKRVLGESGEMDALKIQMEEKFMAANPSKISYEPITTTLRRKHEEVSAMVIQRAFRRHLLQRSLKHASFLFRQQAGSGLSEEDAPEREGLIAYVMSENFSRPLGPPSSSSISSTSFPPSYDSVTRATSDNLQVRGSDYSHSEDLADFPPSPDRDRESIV

For the molecule `CC1(COc2cc(F)c(C(=O)N[C@H](C(=O)O)C3CC3)cc2C2CC2)CN([C@H](c2ccccc2)c2cc(Cl)cc(Cl)c2)C1` (single isomer, unassigned) [Example 113], the IC50 against human NaV1.7 turned out to be 610 nM; on NaV1.5 (read-out: Nav1.5), 15000 nM; at hNav1.7, 7.6 nM.
Regarding `CC1(COc2cc(F)c(C(=O)N[C@H](C(=O)O)C3CC3)cc2C2CC2)CN([C@@H](c2ccccc2)c2cc(Cl)cc(Cl)c2)C1` (single isomer, unassigned) [Example 114], the IC50 against human NaV1.7 amounted to 1700 nM; on NaV1.5 (read-out: Nav1.5) it was 13000 nM; on hNav1.7 it was 20 nM.
With `C[C@H]1CCN(C(=O)c2cc(C3CC3)c(OCC3(C)CN([C@H](c4ccccc4)c4cc(Cl)cc(Cl)c4)C3)cc2F)[C@@H]1C(=O)O` (single isomer, unassigned) [Example 115], the IC50 was 300 nM against human NaV1.7, 11000 nM at NaV1.5 (read-out: Nav1.5) and 7.7 nM at hNav1.7.
Take `C[C@H]1CCN(C(=O)c2cc(C3CC3)c(OCC3(C)CN([C@@H](c4ccccc4)c4cc(Cl)cc(Cl)c4)C3)cc2F)[C@@H]1C(=O)O` (single isomer, unassigned) [Example 116]: the IC50 on human NaV1.7 was 580 nM; on NaV1.5 (read-out: Nav1.5), 15000 nM; on hNav1.7, 12 nM.
On to `CC1(COc2cc(F)c(C(=O)N3C[C@H](F)C[C@H]3C(=O)O)cc2C2CC2)CN([C@@H](c2ccccc2)c2cc(Cl)cc(Cl)c2)C1` (single isomer, unassigned) [Example 117], for which the IC50 against human NaV1.7 was 510 nM; at NaV1.5 (read-out: Nav1.5) it was 8500 nM; at hNav1.7, 23 nM.
On to `O=C(N[C@H](C(=O)O)C1CC1)c1cc(C2CC2)c(OCC2CCN([C@H](c3ccccc3)c3cc(Cl)cc(Cl)c3)CC2)cc1F` (single isomer, unassigned) [Example 118], for which the IC50 against human NaV1.7 was determined as 760 nM; at NaV1.5 (read-out: Nav1.5), 15000 nM; at hNav1.7 it was 21 nM.
The like results for `O=C(N[C@H](C(=O)O)C1CC1)c1cc(C2CC2)c(OCC2CCN([C@@H](c3ccccc3)c3cc(Cl)cc(Cl)c3)CC2)cc1F` (single isomer, unassigned) [Example 119] were, in that order, 850 nM, 9400 nM and 15 nM.
Take `C[C@H]1CCN(C(=O)c2cc(C3CC3)c(OCC3CCN([C@H](c4cc(Cl)cc(Cl)c4)C(F)(F)F)CC3)cc2F)[C@@H]1C(=O)O` (single isomer, unassigned) [Example 121a]: the figures for the IC50 against human NaV1.7, at NaV1.5 (read-out: Nav1.5) and on hNav1.7 were 880 nM, 13000 nM and 20 nM, respectively.
In the case of `C[C@H]1CCN(C(=O)c2cc(C3CC3)c(OCC3CCN([C@@H](c4cc(Cl)cc(Cl)c4)C(F)(F)F)CC3)cc2F)[C@@H]1C(=O)O` (single isomer, unassigned) [Example 121b], the IC50 on human NaV1.7 worked out at 880 nM; on NaV1.5 (read-out: Nav1.5) it was 17000 nM; at hNav1.7, 18 nM.
As for `O=C(O)[C@@H]1CCCN1C(=O)c1cc(C2CC2)c(OCC2CCN([C@H](c3cc(Cl)cc(Cl)c3)C(F)(F)F)CC2)cc1F` (single isomer, unassigned) [Example 123a], the figures for the IC50 on human NaV1.7, at NaV1.5 (read-out: Nav1.5) and at hNav1.7 were 490 nM, 7100 nM and 48 nM, respectively.
For the molecule `O=C(O)[C@@H]1CCCN1C(=O)c1cc(C2CC2)c(OCC2CCN([C@@H](c3cc(Cl)cc(Cl)c3)C(F)(F)F)CC2)cc1F` (single isomer, unassigned) [Example 123b], the IC50 on human NaV1.7 is 410 nM; on NaV1.5 (read-out: Nav1.5), 7700 nM; on hNav1.7 it was 31 nM.
`O=C(O)[C@@H]1C[C@@H](F)CN1C(=O)c1cc(C2CC2)c(OCC2CCN([C@@H](c3ccccc3)c3cc(Cl)cc(Cl)c3)CC2)cc1F` (single isomer, unassigned) [Example 125]: the IC50 is 380 nM against human NaV1.7, 6200 nM on NaV1.5 (read-out: Nav1.5) and 16 nM at hNav1.7.
As for `C[C@H](c1cc(Cl)cc(Cl)c1)N1CCC(C#N)(COc2cc(F)c(C(=O)N3C[C@H](F)C[C@H]3C(=O)O)cc2C2CC2)CC1` (single isomer, unassigned) [Example 126a], the IC50 is 2300 nM against human NaV1.7, 10000 nM on NaV1.5 (read-out: Nav1.5) and 120 nM on hNav1.7.
As for `C[C@@H](c1cc(Cl)cc(Cl)c1)N1CCC(C#N)(COc2cc(F)c(C(=O)N3C[C@H](F)C[C@H]3C(=O)O)cc2C2CC2)CC1` (single isomer, unassigned) [Example 126b], the IC50 was found to be 1400 nM at human NaV1.7, 10000 nM on NaV1.5 (read-out: Nav1.5) and 100 nM on hNav1.7.
Take `C[C@@H](c1cc(Cl)cc(Cl)c1)N1CCC(C)(COc2cc(F)c(C(=O)N3C[C@H](F)C[C@H]3C(=O)O)cc2C2CC2)CC1` (single isomer, unassigned) [Example 132a]: the IC50 stood at 330 nM against human NaV1.7, 17000 nM at NaV1.5 (read-out: Nav1.5) and 24 nM on hNav1.7.
On to `C[C@H](c1cc(Cl)cc(Cl)c1)N1CCC(C)(COc2cc(F)c(C(=O)N3C[C@H](F)C[C@H]3C(=O)O)cc2C2CC2)CC1` (single isomer, unassigned) [Example 132b], for which the results for the IC50 on human NaV1.7, on NaV1.5 (setting [1]) and at hNav1.7 were 430 nM, at least 30000 nM and 24 nM, respectively.
For the molecule `C[C@@]1(COc2cc(F)c(C(=O)N3CCC[C@H]3C(=O)O)cc2C2CC2)CCN(Cc2cc(F)cc(Cl)c2)C1` (single isomer, unassigned) [Example 137a], the IC50 against human NaV1.7 amounted to 3700 nM; at NaV1.5 (read-out: Nav1.5), 15000 nM; on hNav1.7, 570 nM.
In the case of `C[C@]1(COc2cc(F)c(C(=O)N3CCC[C@H]3C(=O)O)cc2C2CC2)CCN(Cc2cc(F)cc(Cl)c2)C1` (single isomer, unassigned) [Example 137b], the IC50 against human NaV1.7 was 2400 nM; against NaV1.5 (setting [1]), at least 30000 nM; on hNav1.7, 310 nM.
For the molecule `C[C@H]1OCN(C(=O)c2cc(C3CC3)c(OCC3CCN([C@H](c4cc(Cl)cc(Cl)c4)C(F)(F)F)CC3)cc2F)[C@@H]1C(=O)O` (single isomer, unassigned) [Example 138a], the IC50 amounted to 300 nM against human NaV1.7, 13000 nM on NaV1.5 (read-out: Nav1.5) and 6.9 nM at hNav1.7.
In the case of `C[C@H]1OCN(C(=O)c2cc(C3CC3)c(OCC3CCN([C@@H](c4cc(Cl)cc(Cl)c4)C(F)(F)F)CC3)cc2F)[C@@H]1C(=O)O` (single isomer, unassigned) [Example 138b], the IC50 on human NaV1.7 is 320 nM; at NaV1.5 (read-out: Nav1.5), 11000 nM; at hNav1.7, 7.6 nM.
As to `O=C(O)[C@@H]1CCCN1C(=O)c1cc(C2CC2)c(OC[C@H]2CCN(C(c3ccccc3)c3ccccc3)C2)cc1F` (single isomer, unassigned) [Example 139a], the IC50 against human NaV1.7 was 5000 nM; at NaV1.5 (read-out: Nav1.5), 25000 nM; at hNav1.7, 650 nM.
For `O=C(O)[C@@H]1CCCN1C(=O)c1cc(C2CC2)c(OC[C@@H]2CCN(C(c3ccccc3)c3ccccc3)C2)cc1F` (single isomer, unassigned) [Example 139b], the IC50 at human NaV1.7 came to 7100 nM; at NaV1.5 (read-out: Nav1.5) it was 22000 nM; at hNav1.7, 800 nM.
For the molecule `O=C(O)[C@@H]1C[C@@H](F)CN1C(=O)c1cc(C2CC2)c(OCC2CCN([C@H](c3cc(Cl)cc(Cl)c3)C(F)(F)F)CC2)cc1F` (single isomer, unassigned) [Example 140a], the values for the IC50 on human NaV1.7, at NaV1.5 (read-out: Nav1.5) and on hNav1.7 were 170 nM, 2700 nM and 14 nM, respectively.
As to `O=C(O)[C@@H]1C[C@@H](F)CN1C(=O)c1cc(C2CC2)c(OCC2CCN([C@@H](c3cc(Cl)cc(Cl)c3)C(F)(F)F)CC2)cc1F` (single isomer, unassigned) [Example 140b], the IC50 against human NaV1.7 was found to be 160 nM; on NaV1.5 (read-out: Nav1.5), 3700 nM; on hNav1.7, 21 nM.
